Laboratory results as given in BindingDB's records for doi:10.7270/Q2ZP44JJ (Burnham Center For Chemical Genomics, 2009).

Target: T1, Tyrosine-protein phosphatase non-receptor type 22 (Homo sapiens, UniProt Q9Y2R2)
T1 sequence (Q9Y2R2 whole entry): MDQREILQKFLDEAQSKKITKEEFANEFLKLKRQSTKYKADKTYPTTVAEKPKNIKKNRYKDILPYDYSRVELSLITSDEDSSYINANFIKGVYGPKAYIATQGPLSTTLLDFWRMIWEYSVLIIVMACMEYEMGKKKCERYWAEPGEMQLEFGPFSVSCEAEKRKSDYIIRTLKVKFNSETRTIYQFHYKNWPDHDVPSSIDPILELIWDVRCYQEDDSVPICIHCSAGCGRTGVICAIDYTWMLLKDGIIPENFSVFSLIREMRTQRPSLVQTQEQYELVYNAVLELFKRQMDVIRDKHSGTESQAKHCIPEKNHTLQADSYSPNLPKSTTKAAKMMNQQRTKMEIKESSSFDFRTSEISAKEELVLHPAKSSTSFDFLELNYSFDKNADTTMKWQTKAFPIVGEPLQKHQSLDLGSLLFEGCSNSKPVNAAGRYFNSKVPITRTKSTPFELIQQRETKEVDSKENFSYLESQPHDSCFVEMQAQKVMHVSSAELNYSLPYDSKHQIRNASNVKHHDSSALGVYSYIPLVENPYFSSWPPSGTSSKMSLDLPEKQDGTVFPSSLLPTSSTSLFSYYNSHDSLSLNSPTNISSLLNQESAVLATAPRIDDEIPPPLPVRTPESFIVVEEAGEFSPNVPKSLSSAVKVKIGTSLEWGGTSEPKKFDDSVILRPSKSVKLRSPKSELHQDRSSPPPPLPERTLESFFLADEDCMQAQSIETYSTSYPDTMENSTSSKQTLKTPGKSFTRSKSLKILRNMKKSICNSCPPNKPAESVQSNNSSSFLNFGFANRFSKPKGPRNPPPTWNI
Assay: PubChem AID 2140

IC50: 43.4 µM
SMILES: CCOc1ccc2nc(NC(=O)CSc3cc(O)c4c(C)c(C)sc4n3)sc2c1 [2-[(2,3-dimethyl-4-oxidanylidene-5H-thieno[2,3-b]pyridin-6-yl)sulfanyl]-N-(6-ethoxy-1,3-benzothiazol-2-yl)ethanamide]
